“Also recorded” adds a separate entry of the source.
Legend:
[1] = tested on: transgenic Drosophila engineered to express the mutant huntingtin protein in all their neurons; details: historical reference; cited from earlier work
[2] = tested on: wildtype Drosophila fruit flies; assay: Toxicity of dimebon in wildtype Drosophila (eclosion number and timing); format: in vivo
Method: Dimebon was evaluated for toxicity levels in wildtype Drosophila fruit flies. Dimebon was administered daily at doses ranging from 10 μM to 1 mM to explore its toxicity. An untreated control group was also studied in this experiment. The concentrations given were concentrations of dimebon in the food that animals drink/eat ad libitum. The food consisted of cornmeal (61.2 g), dextrose (129.4. g), yeast (32.4 g) and agar (9.3 g) in 1 liter of water. Concentrated compounds were added to melted agar food cooled to just above the point of setting (about 40° C.), mixed and dispensed.
About 500 wild type Drosophila eggs were collected on grape juice plates for 20 hours, washed with distilled water and transferred 100 per vial to grow at 25 degrees C. The adult progeny were scored after eclosing (emerging from the pupal case) beginning 10 days later to assess developmental delay and toxicity. The criteria used for toxicity were the number (%) of animals that eclose and the time of the eclosing. For example, fewer animals may emerge from the pupal case if a drug is toxic or the same number of animals may eclose but more slowly than the untreated control group.
The toxicity test employed five concentrations (10 μM, 30 μM, 100 μM, 300 μM, 1 mM) plus an untreated control and was repeated with five sets of flies. […] At 1 mM, there was approximately a 20% decrease in eclosion observed, indicating toxicity at this food concentration. ANOVA analysis indicated a significant difference between datasets (p=0.0031), with post-hoc testing indicating a significant difference between the control and 1 mM datasets (p<0.01).

[3] = tested on: transgenic Drosophila engineered to express the mutant huntingtin protein in all their neurons; assay: Inhibition of mutant huntingtin-induced neurodegeneration of photoreceptor neurons in Drosophila eyes (pseudopupil scoring); format: in vivo; details: for rescue of photoreceptor neurons / rescue of photoreceptor neurons compared to untreated controls: FIG. 2; for rescue of photoreceptor neurons compared to untreated controls: 7 days on drug-containing food; for suppression of photoreceptor neuron degeneration, retest: FIG. 3; for protection of photoreceptors, overall statement: in vivo
Method: Dimebon was administered to one group of transgenic Drosophila engineered to express the mutant huntingtin protein in all their neurons. This was accomplished by cloning a foreign gene into transposable p-element DNA vectors under control of a yeast upstream activator sequence that is activated by the yeast GAL4 transcription factor. These promoter fusions were injected into fly embryos to produce transgenic animals. The foreign gene is silent until crossed to another transgenic strain of flies expressing the GAL4 gene in a tissue specific manner. The Elav>Gal4 which expresses the transgene in all neurons from birth until death was used in the experiments described.
For compound testing, 20-30 Httex1pQ93 virgins were mated to elav>Gal4 males and eggs were collected for about 20 hours at 25° C. and dispensed into vials (expected about 70% lethality from Htt effects). Upon eclosion, at least 80, 0-8 hour old flies were harvested and place on drug-containing food (20 eclosed adults per vial) and scored when 7 days old. Inhibitor-containing food was prepared just before tester flies began to emerge.
The two types of transgenic animals were crossed in order to collect enough closely matched aged controls to study. The crossed aged-matched adults (about 20 per dosing group) were placed on drug-containing food for 7 days. Animals were transferred to fresh food daily to minimize any effects caused by instability of the compounds. Survival was scored daily. The average number of photoreceptors at day zero was determined by scoring 7-10 of the newly eclosed tester siblings within six hours of eclosing. This established the baseline of degeneration at the time of exposure to drug. At day 7, animals were sacrificed and the number of photoreceptor neurons surviving was counted. […] For pseudopupil analysis, flies were decapitated and the heads are mounted in a drop of nail polish on a microscopic slide. The head was then covered with immersion oil and light is projected through the eye of the fly using a Nikon EFD-3/Optiphot-2 compound microscope with a 50× oil objective.

[4] = tested on: transgenic Drosophila engineered to express the mutant huntingtin protein in all their neurons; assay: Motor ability (climbing assay) in the Drosophila model; format: in vivo; details: for numbers surviving to be tested at day 7: initial number of 20 animals at day 0
Method: The motor function of Drosophila obtained as described in the examples above was assessed by exploiting the strong negative geotropism of flies to climb upwards when they are tapped to the bottom of a vial. See, Le Bourg and Lint (1992) Hypergravity and aging in Drosophila melanogaster. 4. […] activity. Gerontology 38, 59-64. Animals were placed in a graduated vessel (e.g., a measuring cylinder). The distance climbed in 10 seconds was measured for each animal over 3 trials with a 5 minute rest period. In a separate experiment using tall thin plastic tubes rather than glass vials, the distance climbed in 30 seconds was also measured. Animals were scored for outcome without knowledge of treatment group. Flies were tested for functional rescue using a behavior assay (climbing assay) where the distance climbed was measured. […] In this assay, climbing was scored blind and each animal was given 3 trials that were then averaged. The climbing of 7 day old animals reared on 0, 10, 100 or 1,000 μM containing food was compared as was the climbing of animals on the day of eclosion. Two trials were performed. In the first, the ability to climb in large glass vials was monitored over 10 seconds. […] The second trial was similar to the first except that animals were tested in tall thin plastic tubes for climbing over 30 seconds. […] The data from the two independent climbing trials are plotted as individual data points in FIG. 6A and 6B. A higher statistical power (e.g., 0.8) given the observed standard deviations and differences of the means may be achieved by doubling the size of the experiment for the highest concentration and increasing about 10 fold for the lower concentrations.

Compound | rescue of photoreceptor neurons, historical positive control [1] | timing of emergence slowed ([2]; 1 mM) | decrease in eclosion ([2]; 1 mM in the food) [%] | toxicity (tolerability) ([2]; 10 to 300 μM in the food, below 1 mM, dihydrochloride) | toxicity in Drosophila, overall statement ([2]; FIG. 1 / experimental summary) | rescue of photoreceptor neurons ([3]; 10 μM) | rescue of photoreceptor neurons compared to untreated controls ([3]; 100 μM, dihydrochloride) | rescue of photoreceptor neurons compared to untreated controls ([3]; 100 μM, listed as Dimebon, dihydrochloride) | suppression of photoreceptor neuron degeneration, retest ([3]; 100 μM, dihydrochloride) | rescue of photoreceptor neurons ([3]; 1 mM) | suppression of photoreceptor neuron degeneration, lower concentrations ([3]; 1, 10 and 30 μM, FIG. 4, dihydrochloride) | suppression of photoreceptor neuron degeneration, retest ([3]; higher doses (300 or 1,000 μM)) | protection of photoreceptors, overall statement ([3]; dihydrochloride) | protection of photoreceptors, overall statement ([3]; listed as Dimebon, dihydrochloride) | previously measured optimum concentration ([3]; photoreceptor rescue) [µM] | numbers surviving to be tested at day 7 ([4]; 10 μM) | numbers surviving to be tested at day 7 ([4]; 100 μM) | climbing behavior over 10 seconds ([4]; 1 mM (1000 μM), 7 day old animals, glass vials, FIG. 5, dihydrochloride) | numbers surviving to be tested at day 7 ([4]; 1 mM) | climbing behavior over 30 seconds ([4]; 10, 100 or 1,000 μM, tall thin plastic tubes, second trial, dihydrochloride)
C[C@@H](N)[C@H]1CC[C@H](C(=O)Nc2ccncc2)CC1 [Y-27632] | strongly rescuing | – | – | – | – | – | – | – | – | – | – | – | – | – | – | – | – | – | – | –
Cc1ccc2c(c1)c1c(n2CCc2ccc(C)nc2)CCN(C)C1.Cl.Cl [dimebon, 2,8-dimethyl-5-(2-(6-methyl-3-pyridyl)-ethyl)-2,3,4,5-tetrahydro-1H-pyrido[4,3-b]indole dihydrochloride] | – | approximately 1 day | ~20 | generally well tolerated; also recorded: no significant toxicity | minimal toxicity | lesser but still apparent rescue of neurons | statistically significant (p=0.0014) rescue of neurons | significant suppression of neuronal degeneration | significant improvement; also recorded: significant rescue | still appeared to cause neuronal rescue, but to a lesser extent | no statistically significant improvement; also recorded: modest tendency for improved photoreceptor numbers | no statistically demonstrable improvement | effective in inhibiting mutant huntingtin-induced neurodegeneration | protect photoreceptors in a dose-dependant manner | 100 | 8 | 12 | significant difference between the control and 1000 μM; also recorded: statistically significant improvement in climbing; also recorded: statistical difference between D7ND and 1 mM | 8 | No statistically demonstrable difference between treated and control groups

Reference: patent US20070117834A1, “Methods and compositions for treating Huntington's disease” (priority 2005, published 2007)
